The source of these data is patent US20160130245A1, “6,8-SUBSTITUTED NARINGENIN DERIVATIVE AND USE THEREOF” (SUN YAT-SEN UNIVERSITY, priority 2012, published 2016).

The test system of data set [1] is mice with cough induced from aqueous ammonia. The data set is described as follows: Cough relieving effect of singly administered compounds in mice with cough induced from aqueous ammonia. The class given is in vivo, male KM mice. To be noted: example compounds 7.44 μmol/ml, codeine phosphate 0.47 μmol/ml; for Coughs: coughs counted in 3 min after 15 s atomized 25% aqueous ammonia, 1 hr after administration, intragastric gavage or intraperitoneal injection, 0.2 ml/10 g body weight, mean ± spread; for Cough relieving rate: relative to blank group (17.8 ± 5.4 coughs), same dosing as Coughs, 0.2 ml/10 g. The source says:
II. Test on Cough Relieving Effect of Singly Administered Example Compounds of the Present Invention in Mice with Cough Induced from Aqueous Ammonia
1. Test animals: male KM mice (available from Guangdong Medical Laboratory Animal Center, Certificate No.: SCXK (Guangdong) 2008-0002, No. 0113738).
2. Test groups and treatment with drugs: Blank control group: treatment with 50% (v/v) PEG400 in physiological saline.
Treatment group with codeine phosphate as positive control—Codeine phosphate (Lott 20091212) is manufactured by Qinghai Pharmaceutical Co., Ltd. Before test, powdered codeine phosphate was added to 50% (v/v) PEG400 in physiological saline, to formulate a 0.47 μmol/ml solution.
Eligible male KM mice were randomly designated to a blank control group, and treatment groups with codeine phosphate as positive control and with example compounds, according to […].
The animals in each group were administered by intragastric gavage or intraperitoneal injection at a dosage of 0.2 ml/10 g of body weight, and placed in a cough inducing chamber 1 hr after administration. 1 ml of 25% concentrated aqueous ammonia was added to an atomizing cup and atomized for 15 s (at a rate of 0.15 ml/min). The coughs in 3 min were counted (during the typical cough, the mouth was opened and the head was lowered, which were accompanied by quivering of the neck and frequently a forward rushing).
Statistical analysis of data—Statistical analysis of all the data was conducted by SPSS 17.0 after the outliers were excluded by t test. Analysis of variance was performed by one-way ANOVA, multiple comparisons between the blank control group and each treatment group were carried out by Dunnett test, and the pairwise multiple comparisons between each treatment group and the codeine phosphate group were conducted by Duncan test.

By melting point is commonly meant the temperature, or range, at which the solid turns liquid. In turn, `C=CCc1c(O)c(I)c2c(c1O)C(=O)CC(c1ccc(O)cc1)O2` (centres unmarked) [Example 10, 8-iodo-2,3-dihydro-5,7-dihydroxy-2-(4-hydroxyphenyl)-6-allylchromen-4-one] yielded a melting point of 218 to 220 °C. Also, in data set [1], the Coughs came out at 12.2 ± 4.0 and the Cough relieving rate is 31.24%.

`C=CCc1c(O)c(Br)c(O)c2c1OC(c1ccc(O)cc1)CC2=O` (centres unmarked) [Example 3, 8-allyl-6-bromo-2,3-dihydro-5,7-dihydroxy-2-(4-hydroxyphenyl)chromen-4-one] had a melting point of 203 to 205 °C. Further, in data set [1], the Coughs is reported as 11.2 ± 6.2 and the Cough relieving rate turned out to be 37.28%.

`C=CCc1c(O)c(O)c2c(c1O)C(=O)CC(c1ccc(O)cc1)O2` (centres unmarked) [Example 8, 6-allyl-2,3-dihydro-5,7,8-Trihydroxy-2-(4-hydroxyphenyl)chromen-4-one] displayed a melting point of 95 to 100 °C. In data set [1], the Coughs came to 10.2 ± 2.6 and the Cough relieving rate is given as 42.64%.

For `CCCc1c(O)c(Cl)c2c(c1O)C(=O)CC(c1ccc(O)cc1)O2` (centres unmarked) [Example 9, 8-Chloro-2,3-dihydro-5,7-dihydroxy-2-(4-hydroxyphenyl)-6-propylchromen-4-one], the melting point was 175 to 176 °C. In addition, in data set [1], the Coughs is on record as 10.7 ± 4.2 and the Cough relieving rate worked out at 39.82%.

Turning to `O=C(O)Cc1c(O)cc(O)c2c1O[C@H](c1ccc(O)cc1)CC2=O` [Example 15, Naringenin-8-acetic acid], the melting point was 245 to 247 °C. In data set [1], this compound came in with a Coughs of 8.3 ± 5.8 and a Cough relieving rate of 53.31%.

`C=CCc1c(O)c(Cl)c2c(c1O)C(=O)CC(c1ccc(O)cc1)O2` (centres unmarked) [Example 5, 6-allyl-8-chloro-2,3-dihydro-5,7-dihydroxy-2-(4-hydroxyphenyl)chromen-4-one]: the melting point is 158 to 160 °C. Further, in data set [1], the Coughs is 11.8 ± 7.3 and the Cough relieving rate stood at 33.49%.

As to `O=CCc1c(O)cc(O)c2c1O[C@H](c1ccc(O)cc1)CC2=O` [Example 11, Naringenin-8-acetaldehyde], the melting point was 150 to 155 °C. In data set [1], the Coughs came to 11.4 ± 6.5 and the Cough relieving rate turned out to be 35.78%.

Consider `O=C(O)Cc1c(O)c(Cl)c2c(c1O)C(=O)C[C@@H](c1ccc(O)cc1)O2` [Example 14, 8-chloro-naringenin-6-acetic acid], for which the melting point lay in the range of 185 to 186 °C. In data set [1], this compound had a Coughs of 9.3 ± 3.9 and a Cough relieving rate of 47.59%.

Compound `CCCc1c(O)cc2c(c1O)C(=O)CC(c1ccc(O)cc1)O2` (centres unmarked) [Example 2, 6-n-propyl-2,3-dihydro-5,7-dihydroxy-2-(4-hydroxyphenyl)chromen-4-one] displayed a melting point of 173 to 175 °C. In data set [1], this compound gave a Coughs of 12.4 ± 4.6 and a Cough relieving rate of 30.16%.

For the compound `CCCc1c(O)c(Cl)c(O)c2c1OC(c1ccc(O)cc1)CC2=O` (centres unmarked) [Example 6, 6-chloro-2,3-dihydro-5,7-dihydroxy-2-(4-hydroxyphenyl)-8-propylchromen-4-one], the melting point lay within 175 to 176 °C. Also, in data set [1], the Coughs came to 9.1 ± 3.9 and the Cough relieving rate is given as 49.06%.

Consider `O=CCc1c(O)cc2c(c1O)C(=O)C[C@@H](c1ccc(O)cc1)O2` [Example 12, Naringenin-6-acetaldehyde], for which the melting point was 178 to 180 °C. In data set [1], the Coughs amounted to 9.3 ± 4.3 and the Cough relieving rate is listed as 47.59%.

As for `O=C(O)Cc1c(O)c(Cl)c(O)c2c1O[C@H](c1ccc(O)cc1)CC2=O` [Example 13, 6-chloro-naringenin-8-acetic acid], the melting point was in the range of 185 to 186 °C. Besides, in data set [1], the Coughs came to 7.4 ± 3.4 and the Cough relieving rate was determined as 58.43%.

`C=CCc1c(O)c(Br)c2c(c1O)C(=O)CC(c1ccc(O)cc1)O2` (centres unmarked) [Example 4, 6-allyl-8-bromo-2,3-dihydro-5,7-dihydroxy-2-(4-hydroxyphenyl)chromen-4-one] returned a melting point of 158 to 160 °C. In data set [1], this compound came in with a Coughs of 11.0 ± 4.1 and a Cough relieving rate of 38.03%.

`C=CCc1c(O)c(Cl)c(O)c2c1OC(c1ccc(O)cc1)CC2=O` (centres unmarked) [Example 7, 8-allyl-6-chloro-2,3-dihydro-5,7-dihydroxy-2-(4-hydroxyphenyl)chromen-4-one]: the melting point is 215 to 216 °C. In data set [1], this compound yielded a Coughs of 10.5 ± 5.8 and a Cough relieving rate of 40.85%.

As to `COc1ccc2c3c1O[C@H]1[C@@H](O)C=C[C@H]4[C@@H](C2)N(C)CC[C@@]341` [codeine phosphate, reference compound], in data set [1], the Coughs was determined as 10.8 ± 3.5 and the Cough relieving rate is 39.60%.
